Entries after “also recorded” stand apart in the source; their conditions may differ.
Assays:
Format in all cases: cell-based
HEK293 cells = experiment: Blue light induced stress granules: staining for stress granule markers and mRNA; settings: blue light stimulation
Excerpt: FIGS. 2A-2B. Blue light induced stress granules using a NcVVDY50W-G3BP1 protein arrangement. […] A DNA arrangement that generates the NcVVDY50W-G3BP1 was developed and expressed in HEK293 cells. Under normal conditions, the NcVVDY50W-G3BP1 remains diffuse in the cytoplasm. When endogenous stress granule formation is induced with heat shock, the NcVVDY50W-G3BP1 forms stress granules that stain positive for key markers including Ataxin-2 and TIAR.
FIG. 5. […] Under normal conditions, G3BP1-NcVVDY50W remains diffuse in the cytoplasm. When endogenous stress granule formation is induced with NaAsO2 (0.5 mM, 30 min treatment), the G3BP1-NcVVDY50W forms stress granules that stain positive for key markers TDP-43 and eIF4G. […] As an example of this technology, DNA arrangements were developed that generated G3BP1-NcVVDY50W, and expressed in HEK293 cells. Under normal conditions, the G3BP1-NcVVDY50W remains diffuse in the cytoplasm. When endogenous stress granule formation is induced with sodium arsenite, the G3BP1-NcVVDY50W forms stress granules that probe positive for key markers, including TDP-43 and eIF4G. […] Inserts are 3D images of stress granules indicated by arrows.
While stress granule dynamics are shown to be altered in these diseases, the true contributions of stress granules to disease pathobiology is unknown since the only current method to form these organelles is to introduce an extracellular stressor (e.g. heat stress at 43° C., exposure to sodium arsenite) which is toxic to cells and ultimately kills the cells being studied. The longest studies of stress granules to date are only on the order of a few hours and so, the importance of these organelles in the initiation of neurodegeneration or cancer cannot be assessed. Therefore, a method to control stress granule formation was developed using light, without the need for any extracellular stressors. To achieve this, the DNA encoding specific photoreceptor protein domains that self-bind with blue light exposure were linked to the DNA of a key protein required for the formation of stress granules, G3BP1 or TIA1. These arrangements were then expressed in HEK293 cells and were tested for their ability to form functional stress granules with various blue light treatment paradigms. It was shown that the LOV photoreceptor domain, from the Vivid protein of N. crassa, which is known to dimerize with blue light exposure, when fused to G3BP1 and exposed to 15-1080 min of 465 nm light at 0.1-1.0 mW/cm2 initiates the formation of a core stress granule structure consisting of the photoreceptors fused to G3BP1 that recruits additional G3BP1 and accessory proteins that comprise stress granules and allow for their maturation. This likely involved the liquid-liquid phase separation (LLPS) and dimerization and oligomerization of G3BP1 (concept represented in FIG. 1).

protein synthesis = experiment: De novo protein synthesis, HPG incorporation with Click-iT detection
Experimental: FIGS. 14A-14B. […] The major function of endogenous stress granules is to bind mRNAs and halt protein synthesis until the cellular stress is removed. To test this, cells expressing G3BP1-NcVVDY50W were either exposed to blue light stimulation or not for 30 minutes and protein translation was assessed. Prior to the translation assay, cells were treated with cyclohexamide for one hour to inhibit protein synthesis and then the cyclohexamide was removed and cells were provided L-Homopropargylglycine (HPG) for one hour. HPG acts as a methionine amino acid analog and is incorporated into newly synthesized proteins. Click-iT™ chemistry was then performed to detect HPG and cells were imaged. Green signal indicates newly synthesized proteins during the time at which HPG is present in the media.
FIGS. 24A-24E. Replacing the G3BP1 NTF2 domain, which is required for G3BP1 self-oligomerization (optoSG), with oligomerizing photoreceptors, is sufficient to initiate the formation of optogenetic stress granules. FIG. 24A) Schematics of an additional approach to seed optoStress Granules (optoSGs) employing truncated G3BP1 protein and replacing the NTF2 oligomerizing domain with a photoreceptor with the capacity to oligomerize (in this instance Cry2-PHR, but also works with chronic stimulation of dimerizing photoreceptor). FIG. 24B) HEK cells expressing Cry2 PHR-[…]NTF-G3BP1 were exposed to blue light LED stimulation for 30 minutes to induce the formation of optoSGs.

phospho-eIF2a and ATF4 = experiment: Western blotting for integrated stress response (ISR) components; settings: total protein of cells with blue light induced stress granules
Excerpt: FIGS. 21A-21B. […] Total cellular protein from blue light induced stress granules using G3BP1-NcVVDY50W protein arrangement was collected.

[1] = tested on: ReNCell differentiated cortical neuron-like cells; experiment: Blue light induced stress granules in ReNCell differentiated cortical neuron-like cells
Excerpt: FIG. 20. Blue light induced stress granules using a G3BP1-NcVVDY50W protein arrangement in ReNCell differentiated cortical neuron-like cells. A DNA arrangement that generates the G3BP1-NcVVDY50W was developed and expressed in ReNCell differentiated cortical neuron-like cells. To confirm differentiation of ReN cells to cortical neuron-like cells, cultures were probed for MAP2, a protein that is only expressed in neurons. Under normal conditions, the NcVVDY50W-G3BP1 remains diffuse in the cytoplasm.

G3BP1-NcVVDY50W: G3BP1 Full Length Protein with NcVivid Y50W, SEQ ID NO: 16
colocalization of blue light induced stress granules with stress granule markers (HEK293 cells): colocalize with the key translation factor eIF4G, and the stress granule marker Ataxin-2; also recorded: colocalize with the key stress granule markers TIAR and G3BP; also recorded: probe positive for TDP-43 and eIF4G; also recorded: colocalize with the key stress granule markers RPS6 and eIF4G (FIG. 6A), as well as Ataxin-2 and RPS3; also recorded: colocalize with the key stress granule markers PABPC1 and G3BP (FIG. 7A), as well as eIF3H and eIF4G; also recorded: colocalize with the key stress granule markers FUS and G3BP; also recorded: colocalize with the key stress granule marker Ataxin-2, but not RPL36a | mRNA sequestration by blue light induced stress granules (HEK293 cells): sequester cytoplasmic mRNA | reduction in protein synthesis with light-induced stress granules (protein synthesis; blue light stimulation 30 minutes, HPG for one hour): 40% | protein synthesis (HPG signal) with light-induced stress granules (protein synthesis; blue light stimulation, Click-iT detection): little to no HPG signal | induction of cell stress (phospho-eIF2a, ATF4) (phospho-eIF2a and ATF4): do not induce a cell stress | colocalization of blue light induced stress granules with Ataxin-2 [1]: colocalize with the key stress granule marker Ataxin-2
